Measurements taken from paper PMC5218480 (PLoS ONE, 2017).

Test system: MV-4-11 cells
Test: Gene expression microarray analysis (Affymetrix PrimeView) and GSEA
Assay type: cell-based, human
Design: RFU PODN (11730768_x_at) / Fold change /veh PODN (11730768_x_at) / RFU LINC00158 (11744669_a_at) / Fold change /veh LINC00158 (11744669_a_at) / RFU DUSP10 (11751237_a_at) / Fold change /veh DUSP10 (11751237_a_at) / RFU ID3 (11757404_x_at) / Fold change /veh ID3 (11757404_x_at) / RFU PLEKHG5 (11737974_s_at) / Fold change /veh PLEKHG5 (11737974_s_at) / RFU LRRC4B (11730491_at) / Fold change /veh LRRC4B (11730491_at) / RFU GIMAP4 (11747438_a_at) / Fold change /veh GIMAP4 (11747438_a_at) / RFU KRT8 (11758183_x_at) / Fold change /veh KRT8 (11758183_x_at) / RFU CNN1 (11734310_a_at) / Fold change /veh CNN1 (11734310_a_at) / RFU VPS37D (11726825_at) / Fold change /veh VPS37D (11726825_at) / RFU C10orf10 (11716522_x_at) / Fold change /veh C10orf10 (11716522_x_at) / RFU KIR2DL2 /// KIR2DL4 /// KIR2DL5A /// KIR2DL5B /// KIR2DS1 /// KIR2DS2 /// KIR2DS3 /// KIR2DS4 /// KIR3DL3 /// KIR3DL3 /// KIR3DS1 (11738374_at) / Fold change /veh KIR2DL2 /// KIR2DL4 /// KIR2DL5A /// KIR2DL5B /// KIR2DS1 /// KIR2DS2 /// KIR2DS3 /// KIR2DS4 /// KIR3DL3 /// KIR3DL3 /// KIR3DS1 (11738374_at) / RFU C1QL1 (11718748_at) / Fold change /veh C1QL1 (11718748_at) / RFU TMPRSS4 (11747572_a_at) / Fold change /veh TMPRSS4 (11747572_a_at) / RFU HAMP (11756126_x_at) / Fold change /veh HAMP (11756126_x_at) / RFU RNFT2 (11725882_a_at) / Fold change /veh RNFT2 (11725882_a_at) / RFU NR4A2 (11747474_a_at) / Fold change /veh NR4A2 (11747474_a_at) / RFU ABCC12 (11746883_a_at) / Fold change /veh ABCC12 (11746883_a_at) / RFU TMEM136 (11760407_x_at) / Fold change /veh TMEM136 (11760407_x_at) / RFU CLDN22 /// WWC2 (11732394_at) / Fold change /veh CLDN22 /// WWC2 (11732394_at) / RFU HLA-DPB1 (11760878_x_at) / Fold change /veh HLA-DPB1 (11760878_x_at) / RFU SPINT1 (11716480_a_at) / Fold change /veh SPINT1 (11716480_a_at) / RFU GAP43 (11754022_s_at) / Fold change /veh GAP43 (11754022_s_at) / RFU A4GNT (11735810_at) / Fold change /veh A4GNT (11735810_at) / RFU PRB3 (11715151_x_at) / Fold change /veh PRB3 (11715151_x_at) / RFU TUBB4B (11761932_at) / Fold change /veh TUBB4B (11761932_at) / RFU CAPN14 (11732068_a_at) / Fold change /veh CAPN14 (11732068_a_at) / RFU TMCC2 (11721928_a_at) / Fold change /veh TMCC2 (11721928_a_at) / RFU IRGQ (11745062_a_at) / Fold change /veh IRGQ (11745062_a_at) / RFU FAM174B (11720279_a_at) / Fold change /veh FAM174B (11720279_a_at) / RFU TMPRSS4 (11748680_a_at) / Fold change /veh TMPRSS4 (11748680_a_at) / RFU FAM212B (11763350_a_at) / Fold change /veh FAM212B (11763350_a_at) / RFU PLEKHG5 (11743358_a_at) / Fold change /veh PLEKHG5 (11743358_a_at) / RFU ZSCAN30 (11745921_a_at) / Fold change /veh ZSCAN30 (11745921_a_at) / RFU CMKLR1 (11741424_a_at) / Fold change /veh CMKLR1 (11741424_a_at) / RFU LOC101060620 /// MAPK8IP1 (11723275_at) / Fold change /veh LOC101060620 /// MAPK8IP1 (11723275_at) / RFU SPTSSB (11747773_x_at) / Fold change /veh SPTSSB (11747773_x_at) / RFU PRSS12 (11739890_at) / Fold change /veh PRSS12 (11739890_at) / RFU BIN1 (11741810_x_at) / Fold change /veh BIN1 (11741810_x_at) / RFU WNT11 (11732464_a_at) / Fold change /veh WNT11 (11732464_a_at) / RFU C10orf10 (11716521_a_at) / Fold change /veh C10orf10 (11716521_a_at) / RFU C5orf56 (11738089_at) / Fold change /veh C5orf56 (11738089_at) / RFU CYB561 (11721691_x_at) / Fold change /veh CYB561 (11721691_x_at) / RFU ANKRD19P (11752326_a_at) / Fold change /veh ANKRD19P (11752326_a_at) / RFU OR2T12 /// OR2T33 /// OR2T8 (11738714_s_at) / Fold change /veh OR2T12 /// OR2T33 /// OR2T8 (11738714_s_at) / RFU VCAN (11748164_a_at) / Fold change /veh VCAN (11748164_a_at) / RFU JSRP1 (11732532_at) / Fold change /veh JSRP1 (11732532_at) / RFU KRTAP10-11 (11738290_x_at) / Fold change /veh KRTAP10-11 (11738290_x_at) / RFU MYO3A (11730013_a_at) / Fold change /veh MYO3A (11730013_a_at) / RFU EBF3 (11725865_a_at) / Fold change /veh EBF3 (11725865_a_at) / RFU CAMK2N1 (11719241_x_at) / Fold change /veh CAMK2N1 (11719241_x_at) / RFU C5orf56 (11738088_a_at) / Fold change /veh C5orf56 (11738088_a_at) / RFU OLFML3 (11715873_a_at) / Fold change /veh OLFML3 (11715873_a_at) / RFU LOC100653217 /// NTM (11731650_a_at) / Fold change /veh LOC100653217 /// NTM (11731650_a_at) / RFU MAPK11 (11762145_a_at) / Fold change /veh MAPK11 (11762145_a_at) / RFU FIZ1 (11724087_x_at) / Fold change /veh FIZ1 (11724087_x_at) / RFU OASL (11726364_x_at) / Fold change /veh OASL (11726364_x_at) / RFU SOX15 (11748057_x_at) / Fold change /veh SOX15 (11748057_x_at) / RFU CD79A (11719716_a_at) / Fold change /veh CD79A (11719716_a_at) / RFU HIST1H1D (11736915_at) / Fold change /veh HIST1H1D (11736915_at) / RFU CASKIN2 (11723855_a_at) / Fold change /veh CASKIN2 (11723855_a_at) / RFU LOC730098 (11760151_x_at) / Fold change /veh LOC730098 (11760151_x_at) / RFU OR4N2 (11742367_at) / Fold change /veh OR4N2 (11742367_at) / RFU PRRT2 (11749266_a_at) / Fold change /veh PRRT2 (11749266_a_at) / RFU SNX32 (11753110_a_at) / Fold change /veh SNX32 (11753110_a_at) / RFU CDHR5 (11726645_a_at) / Fold change /veh CDHR5 (11726645_a_at) / RFU RCAN1 (11760418_a_at) / Fold change /veh RCAN1 (11760418_a_at) / RFU FAM167A (11723789_a_at) / Fold change /veh FAM167A (11723789_a_at) / RFU FAM26E (11764081_at) / Fold change /veh FAM26E (11764081_at) / RFU ISYNA1 (11749810_s_at) / Fold change /veh ISYNA1 (11749810_s_at) / RFU ACY1 (11761880_at) / Fold change /veh ACY1 (11761880_at) / RFU 11764098_at / Fold change /veh 11764098_at / RFU SAMD14 (11745864_x_at) / Fold change /veh SAMD14 (11745864_x_at) / RFU NPB (11741838_a_at) / Fold change /veh NPB (11741838_a_at) / RFU TMPRSS6 (11731388_a_at) / Fold change /veh TMPRSS6 (11731388_a_at) / RFU KRTAP10-2 (11738614_at) / Fold change /veh KRTAP10-2 (11738614_at) / RFU ARHGAP8 /// PRR5-ARHGAP8 (11727945_x_at) / Fold change /veh ARHGAP8 /// PRR5-ARHGAP8 (11727945_x_at) / RFU KRTAP5-7 /// NADSYN1 (11734609_at) / Fold change /veh KRTAP5-7 /// NADSYN1 (11734609_at) / RFU RASL12 (11751679_a_at) / Fold change /veh RASL12 (11751679_a_at) / RFU CDKN2B (11736163_a_at) / Fold change /veh CDKN2B (11736163_a_at) / RFU PRF1 (11729649_at) / Fold change /veh PRF1 (11729649_at) / RFU, ZNF638 /// ZNF638-IT1 / Fold change vs veh, ZNF638 /// ZNF638-IT1 / RFU, PANK3 / Fold change vs veh, PANK3 / RFU, SH3YL1 / Fold change vs veh, SH3YL1 / RFU, ZEB2 / Fold change vs veh, ZEB2 / RFU, NRIP1 / Fold change vs veh, NRIP1 / RFU, PTTG1IP / Fold change vs veh, PTTG1IP / RFU, CAPN2 / Fold change vs veh, CAPN2 / RFU, MED14 / Fold change vs veh, MED14 / RFU, SNORA58 / Fold change vs veh, SNORA58 / RFU, C1orf63 / Fold change vs veh, C1orf63 / RFU, LRRFIP1 / Fold change vs veh, LRRFIP1 / RFU, NDUFAF7 / Fold change vs veh, NDUFAF7 / RFU, SLC12A2 / Fold change vs veh, SLC12A2 / RFU, IBTK / Fold change vs veh, IBTK / RFU, ESF1 / Fold change vs veh, ESF1 / Fold change vs veh, TMEM50B / RFU, TAOK1 / Fold change vs veh, TAOK1 / RFU, ACBD3 / Fold change vs veh, ACBD3 / RFU, TMA16 / Fold change vs veh, TMA16 / RFU, RWDD3 / Fold change vs veh, RWDD3 / RFU, BCAT1 / Fold change vs veh, BCAT1 / RFU, EDEM3 / Fold change vs veh, EDEM3 / RFU, TMEM33 / Fold change vs veh, TMEM33 / RFU, WDR75 / Fold change vs veh, WDR75 / RFU, AHCTF1 / Fold change vs veh, AHCTF1 / RFU, TFRC / Fold change vs veh, TFRC / RFU, ZDHHC17 / Fold change vs veh, ZDHHC17 / RFU, NOM1 / Fold change vs veh, NOM1 / RFU, ARL8B / Fold change vs veh, ARL8B / RFU, ZBTB11 / Fold change vs veh, ZBTB11 / RFU, TAMM41 / Fold change vs veh, TAMM41 / RFU, KIAA1704 /// LOC100996395 / Fold change vs veh, KIAA1704 /// LOC100996395 / RFU, ING1 / Fold change vs veh, ING1 / RFU, TRMT61B / Fold change vs veh, TRMT61B / RFU, FUBP3 / Fold change vs veh, FUBP3 / RFU, TP53 / Fold change vs veh, TP53 / RFU, TNKS2 / Fold change vs veh, TNKS2 / RFU, ZFP14 / Fold change vs veh, ZFP14 / RFU, ACTR2 / Fold change vs veh, ACTR2 / RFU, PPP3R1 / Fold change vs veh, PPP3R1 / RFU, PIK3R1 / Fold change vs veh, PIK3R1 / RFU, HNRNPA1 / Fold change vs veh, HNRNPA1 / RFU, RNF170 / Fold change vs veh, RNF170 / RFU, ZNF28 / Fold change vs veh, ZNF28 / RFU, RNGTT / Fold change vs veh, RNGTT / RFU, OGT / Fold change vs veh, OGT / RFU, BRD1 / Fold change vs veh, BRD1 / RFU, MARS / Fold change vs veh, MARS / RFU, ZNF655 / Fold change vs veh, ZNF655 / RFU, FAHD1 / Fold change vs veh, FAHD1 / RFU, BDP1 / Fold change vs veh, BDP1 / RFU, LRRCC1 / Fold change vs veh, LRRCC1 / RFU, ARID1A / Fold change vs veh, ARID1A / RFU, ZNF146 / Fold change vs veh, ZNF146 / RFU, ZNF330 / Fold change vs veh, ZNF330 / RFU, GPN3 / Fold change vs veh, GPN3 / RFU, C9orf123 / Fold change vs veh, C9orf123 / RFU, N4BP2L2 / Fold change vs veh, N4BP2L2 / RFU, ARFIP1 / Fold change vs veh, ARFIP1 / RFU, FAM179B / Fold change vs veh, FAM179B / RFU, BCL10 / Fold change vs veh, BCL10 / RFU, UHRF1BP1L / Fold change vs veh, UHRF1BP1L / RFU, BET1 / Fold change vs veh, BET1 / RFU, CNOT2 / Fold change vs veh, CNOT2 / RFU, ZNF268 / Fold change vs veh, ZNF268 / Fold change vs veh, ZNF507 / RFU, DGCR2 / Fold change vs veh, DGCR2 / RFU, WDSUB1 / Fold change vs veh, WDSUB1 / Fold change vs veh, HSP90B1 /// MIR3652 / RFU, ADSS / Fold change vs veh, ADSS / RFU, GK / Fold change vs veh, GK / RFU, ZNF148 / Fold change vs veh, ZNF148 / RFU, TAF9 / Fold change vs veh, TAF9 / RFU, SLC1A5 / Fold change vs veh, SLC1A5 / RFU, SLMO2 / Fold change vs veh, SLMO2 / RFU, ABCC4 / Fold change vs veh, ABCC4 / RFU, LOC101060439 /// RAP1B / Fold change vs veh, LOC101060439 /// RAP1B / RFU, RFX7 / Fold change vs veh, RFX7 / RFU, GTPBP10 / Fold change vs veh, GTPBP10 / RFU, CNEP1R1 / Fold change vs veh, CNEP1R1 / RFU, BIVM-ERCC5 /// ERCC5 / Fold change vs veh, BIVM-ERCC5 /// ERCC5 / RFU, ILF3 / Fold change vs veh, ILF3 / RFU 11762660_at / Fold change /veh 11762660_at / RFU VCAN (11757783_s_at) / Fold change /veh VCAN (11757783_s_at) / RFU DDX43 (11728927_at) / Fold change /veh DDX43 (11728927_at) / RFU KRT8 (11758188_x_at) / Fold change /veh KRT8 (11758188_x_at) / RFU NKD1 (11759106_at) / Fold change /veh NKD1 (11759106_at) / RFU SRD5A1 (11742802_a_at) / Fold change /veh SRD5A1 (11742802_a_at) / RFU TPSAB1 /// TPSB2 (11721975_s_at) / Fold change /veh TPSAB1 /// TPSB2 (11721975_s_at) / RFU GSTM3 (11746129_a_at) / Fold change /veh GSTM3 (11746129_a_at) / RFU IL23R (11737362_x_at) / Fold change /veh IL23R (11737362_x_at) / RFU TMEM51 (11727254_a_at) / Fold change /veh TMEM51 (11727254_a_at) / RFU PIWIL2 (11732686_x_at) / Fold change /veh PIWIL2 (11732686_x_at) / RFU ORM1 (11744905_x_at) / Fold change /veh ORM1 (11744905_x_at) / RFU CCDC152 (11743942_at) / Fold change /veh CCDC152 (11743942_at) / RFU ECM1 (11717891_a_at) / Fold change /veh ECM1 (11717891_a_at) / RFU IL23R (11748794_a_at) / Fold change /veh IL23R (11748794_a_at) / RFU TNFAIP8L3 (11732012_x_at) / Fold change /veh TNFAIP8L3 (11732012_x_at) / RFU MBOAT4 (11741988_at) / Fold change /veh MBOAT4 (11741988_at) / RFU 11764193_at / Fold change /veh 11764193_at / RFU TMEM53 (11763286_at) / Fold change /veh TMEM53 (11763286_at) / RFU MAGEB2 (11727129_at) / Fold change /veh MAGEB2 (11727129_at) / RFU TMEM200A (11744735_a_at) / Fold change /veh TMEM200A (11744735_a_at) / RFU CCDC152 (11751479_a_at) / Fold change /veh CCDC152 (11751479_a_at) / RFU FAM211A (11726209_a_at) / Fold change /veh FAM211A (11726209_a_at) / RFU RGS16 (11746705_a_at) / Fold change /veh RGS16 (11746705_a_at) / RFU VCAN (11755009_s_at) / Fold change /veh VCAN (11755009_s_at) / RFU RHOB (11743442_s_at) / Fold change /veh RHOB (11743442_s_at) / RFU RGS16 (11720943_a_at) / Fold change /veh RGS16 (11720943_a_at) / RFU RGS16 (11720944_at) / Fold change /veh RGS16 (11720944_at) / RFU, VPS4B / Fold change vs veh, VPS4B / RFU, CREB1 / Fold change vs veh, CREB1 / RFU, DNAJC13 / Fold change vs veh, DNAJC13 / RFU, GNAQ / Fold change vs veh, GNAQ / RFU, CDK5R1 / Fold change vs veh, CDK5R1 / RFU, ZRANB3 / Fold change vs veh, ZRANB3 / RFU, CUL4A / Fold change vs veh, CUL4A / RFU, CCNY / Fold change vs veh, CCNY / RFU, UFL1 / Fold change vs veh, UFL1 / RFU, COG3 / Fold change vs veh, COG3 / RFU, DIAPH2 / Fold change vs veh, DIAPH2 / RFU, SKA2 / Fold change vs veh, SKA2 / RFU, AFF3 / Fold change vs veh, AFF3 / RFU, LMF1 / Fold change vs veh, LMF1 / RFU, IPO11 / Fold change vs veh, IPO11 / RFU, DFFB / Fold change vs veh, DFFB / RFU, FOXP1 / Fold change vs veh, FOXP1 / RFU, CARD8 / Fold change vs veh, CARD8 / RFU, STRN3 / Fold change vs veh, STRN3 / RFU, ADK / Fold change vs veh, ADK / RFU, RASSF2 / Fold change vs veh, RASSF2 / RFU, WIPF1 / Fold change vs veh, WIPF1 / RFU, LARP1B / Fold change vs veh, LARP1B / RFU, RASA1 / Fold change vs veh, RASA1 / RFU, RB1 / Fold change vs veh, RB1 / RFU, PPFIA1 / Fold change vs veh, PPFIA1 / RFU, MAT2A / Fold change vs veh, MAT2A / RFU, CCT5 / Fold change vs veh, CCT5 / RFU, WDR92 / Fold change vs veh, WDR92 / RFU, CUX1 / Fold change vs veh, CUX1 / RFU, TTC7A / Fold change vs veh, TTC7A / RFU, TMEM135 / Fold change vs veh, TMEM135 / RFU, DEPTOR / Fold change vs veh, DEPTOR / RFU, CPM / Fold change vs veh, CPM / RFU, DNAJB6 / Fold change vs veh, DNAJB6 / RFU, CACNA2D3 / Fold change vs veh, CACNA2D3 / RFU, DTX4 / Fold change vs veh, DTX4 / RFU, TFCP2 / Fold change vs veh, TFCP2 / RFU, GMCL1 /// GMCL1P1 / Fold change vs veh, GMCL1 /// GMCL1P1 / RFU, AEBP2 / Fold change vs veh, AEBP2 / RFU, SNHG1 /// SNORD22 /// SNORD25 /// SNORD26 /// SNORD27 /// SNORD28 /// SNORD29 /// SNORD31 / Fold change vs veh, SNHG1 /// SNORD22 /// SNORD25 /// SNORD26 /// SNORD27 /// SNORD28 /// SNORD29 /// SNORD31 / Fold change (Aza/veh), C12orf56 (ProbeSet 11735607_a_at) / Fold change (ACY-1035/veh), C12orf56 (ProbeSet 11735607_a_at) / Fold change (Aza/veh), FGFR1OP (ProbeSet 11751329_s_at) / Fold change (ACY-1035/veh), FGFR1OP (ProbeSet 11751329_s_at) / Fold change (Aza/veh), VPS36 (ProbeSet 11739960_a_at) / Fold change (ACY-1035/veh), VPS36 (ProbeSet 11739960_a_at) / RFU SYPL1 (11715823_x_at) / Fold change /veh SYPL1 (11715823_x_at) / RFU IGFBP7 (11715501_s_at) / Fold change /veh IGFBP7 (11715501_s_at) / RFU REEP3 (11722064_at) / Fold change /veh REEP3 (11722064_at) / RFU IGLL1 (11728026_x_at) / Fold change /veh IGLL1 (11728026_x_at): dose or concentration left out as unconfirmed
Details: ProbeSet 11721611_a_at; LIST D

SMILES: Nc1ncn([C@@H]2O[C@H](CO)[C@@H](O)[C@H]2O)c(=O)n1 [azacitidine]
- Fold change vs veh, IPO11: 0.66
